Values of other authors, collected in patent US20070269473A1, “Microbial Encapsulation” (priority 2004, published 2007).

Conditions: octanol/water; carriers

Row | Compound | logP(o/w)
1 | 1,3,5-trimethyl-Benzene (Mesitylene) | 3.6
2 | COC(=O)c1ccccc1 [Methyl benzoate] | 1.8
3 | Acetophenone (1-phenyl-Ethanone) | 1.7
